In PubChem BioAssay (NCI):
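A five-concentration, 48-hour dose response in 96-well plates underlies each endpoint, interpolated linearly between surrounding concentrations. Definition used: TGI = concentration required for complete inhibition of growth.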

Legend:
Experiment in all cases: growth of human tumour cells (NCI), 48 h
ACHN renal = system: ACHN renal
IGROV1 ovarian = system: IGROV1 ovarian
CAKI-1 renal = system: CAKI-1 renal
SW-620 colon = system: SW-620 colon
TK-10 renal = system: TK-10 renal
SF-539 CNS = system: SF-539 CNS
SF-268 CNS = system: SF-268 CNS
KM12 colon = system: KM12 colon
HL-60(TB) leukemia = system: HL-60(TB) leukemia
NCI-H23 lung = system: NCI-H23 lung
LOX IMVI melanoma = system: LOX IMVI melanoma
HOP-62 NSCLC = system: HOP-62 NSCLC
NCI-H226 lung = system: NCI-H226 lung
OVCAR-3 ovarian = system: OVCAR-3 ovarian
HS 578T breast = system: HS 578T breast
MCF7 breast = system: MCF7 breast
MDA-N = system: MDA-N
SNB-75 CNS = system: SNB-75 CNS
MOLT-4 leukemia = system: MOLT-4 leukemia
SK-MEL-28 melanoma = system: SK-MEL-28 melanoma
MDA-MB-435 = system: MDA-MB-435
RXF 393 renal = system: RXF 393 renal
SN12C renal = system: SN12C renal
DU-145 prostate = system: DU-145 prostate
RPMI-8226 leukemia = system: RPMI-8226 leukemia
OVCAR-4 ovarian = system: OVCAR-4 ovarian
A549 NSCLC = system: A549 NSCLC
NCI/ADR-RES ovarian = system: NCI/ADR-RES ovarian
OVCAR-5 ovarian = system: OVCAR-5 ovarian
OVCAR-8 ovarian = system: OVCAR-8 ovarian
COLO 205 colon = system: COLO 205 colon
HCT-116 colon = system: HCT-116 colon
U251 CNS = system: U251 CNS
PC-3 prostate = system: PC-3 prostate
SR leukemia = system: SR leukemia
HT29 colon = system: HT29 colon
K-562 leukemia = system: K-562 leukemia
SK-MEL-5 melanoma = system: SK-MEL-5 melanoma
HCC-2998 colon = system: HCC-2998 colon
SNB-19 CNS = system: SNB-19 CNS
MDA-MB-231 breast = system: MDA-MB-231 breast
EKVX NSCLC = system: EKVX NSCLC
UACC-257 melanoma = system: UACC-257 melanoma
BT-549 breast = system: BT-549 breast
UO-31 renal = system: UO-31 renal
HOP-92 NSCLC = system: HOP-92 NSCLC
SF-295 CNS = system: SF-295 CNS
NCI-H460 lung = system: NCI-H460 lung
CCRF-CEM leukemia = system: CCRF-CEM leukemia
786-0 renal = system: 786-0 renal
HCT-15 colon = system: HCT-15 colon
A498 renal = system: A498 renal
NCI-H522 lung = system: NCI-H522 lung
T-47D breast = system: T-47D breast
MALME-3M melanoma = system: MALME-3M melanoma
SK-MEL-2 melanoma = system: SK-MEL-2 melanoma
M14 melanoma = system: M14 melanoma
UACC-62 melanoma = system: UACC-62 melanoma
SK-OV-3 ovarian = system: SK-OV-3 ovarian

SMILES: O=[N+]([O-])c1ccc2c(c1)Sc1ccccc1N2CCCCCl
- TGI (ACHN renal): > 100 µM
- TGI (IGROV1 ovarian): > 100 µM
- TGI (CAKI-1 renal): > 100 µM
- TGI (SW-620 colon): > 100 µM
- TGI (TK-10 renal): > 100 µM
- TGI (SF-539 CNS): > 100 µM
- TGI (SF-268 CNS): > 100 µM
- TGI (KM12 colon): > 100 µM
- TGI (HL-60(TB) leukemia): > 100 µM
- TGI (NCI-H23 lung): > 100 µM
- TGI (LOX IMVI melanoma): > 100 µM
- TGI (HOP-62 NSCLC): > 100 µM
- TGI (NCI-H226 lung): > 100 µM
- TGI (OVCAR-3 ovarian): > 100 µM
- TGI (HS 578T breast): > 100 µM
- TGI (MCF7 breast): > 100 µM
- TGI (MDA-N): > 100 µM
- TGI (SNB-75 CNS): > 100 µM
- TGI (MOLT-4 leukemia): > 100 µM
- TGI (SK-MEL-28 melanoma): > 100 µM
- TGI (MDA-MB-435): > 100 µM
- TGI (RXF 393 renal): > 100 µM
- TGI (SN12C renal): > 100 µM
- TGI (DU-145 prostate): > 100 µM
- TGI (RPMI-8226 leukemia): > 100 µM
- TGI (OVCAR-4 ovarian): > 100 µM
- TGI (A549 NSCLC): > 100 µM
- TGI (NCI/ADR-RES ovarian): > 100 µM
- TGI (OVCAR-5 ovarian): > 100 µM
- TGI (OVCAR-8 ovarian): > 100 µM
- TGI (COLO 205 colon): > 100 µM
- TGI (HCT-116 colon): > 100 µM
- TGI (U251 CNS): > 100 µM
- TGI (PC-3 prostate): > 100 µM
- TGI (SR leukemia): > 100 µM
- TGI (HT29 colon): > 100 µM
- TGI (K-562 leukemia): > 100 µM
- TGI (SK-MEL-5 melanoma): > 100 µM
- TGI (HCC-2998 colon): > 100 µM
- TGI (SNB-19 CNS): > 100 µM
- TGI (MDA-MB-231 breast): > 100 µM
- TGI (EKVX NSCLC): > 100 µM
- TGI (UACC-257 melanoma): > 100 µM
- TGI (BT-549 breast): > 100 µM
- TGI (UO-31 renal): > 100 µM
- TGI (HOP-92 NSCLC): > 100 µM
- TGI (SF-295 CNS): > 100 µM
- TGI (NCI-H460 lung): > 100 µM
- TGI (CCRF-CEM leukemia): > 100 µM
- TGI (786-0 renal): > 100 µM
- TGI (HCT-15 colon): > 100 µM
- TGI (A498 renal): > 100 µM
- TGI (NCI-H522 lung): > 100 µM

SMILES: CC(C)[C@]12O[C@H]1[C@@H]1O[C@@]13[C@@]1(C)CCC4=C(COC4=O)[C@@H]1C[C@@H]1O[C@@]13C2=O
- TGI (IGROV1 ovarian): > 100 µM
- TGI (T-47D breast): > 100 µM
- TGI (SW-620 colon): > 42.1 µM
- TGI (TK-10 renal): > 100 µM
- TGI (SF-539 CNS): 0.0428 µM
- TGI (SF-268 CNS): 0.522 µM
- TGI (KM12 colon): > 22.6 µM
- TGI (HL-60(TB) leukemia): 0.0249 µM
- TGI (NCI-H23 lung): < 0.0276 µM
- TGI (LOX IMVI melanoma): > 100 µM
- TGI (HOP-62 NSCLC): 0.115 µM
- TGI (HS 578T breast): 0.0882 µM
- TGI (MCF7 breast): > 100 µM
- TGI (MDA-N): 0.0265 µM
- TGI (SNB-75 CNS): 0.0444 µM
- TGI (MOLT-4 leukemia): 0.3 µM
- TGI (MALME-3M melanoma): 0.0541 µM
- TGI (SK-MEL-28 melanoma): 0.0397 µM
- TGI (MDA-MB-435): 0.0264 µM
- TGI (RXF 393 renal): < 0.0158 µM
- TGI (SN12C renal): > 100 µM
- TGI (DU-145 prostate): > 28.9 µM
- TGI (SK-MEL-2 melanoma): 0.0151 µM
- TGI (RPMI-8226 leukemia): 0.063 µM
- TGI (OVCAR-4 ovarian): 0.0621 µM
- TGI (A549 NSCLC): > 100 µM
- TGI (NCI/ADR-RES ovarian): > 53.2 µM
- TGI (OVCAR-5 ovarian): > 100 µM
- TGI (OVCAR-8 ovarian): > 100 µM
- TGI (COLO 205 colon): 0.025 µM
- TGI (HCT-116 colon): > 100 µM
- TGI (U251 CNS): > 78.7 µM
- TGI (PC-3 prostate): 2.11 µM
- TGI (M14 melanoma): 0.0493 µM
- TGI (HT29 colon): > 100 µM
- TGI (K-562 leukemia): > 100 µM
- TGI (SK-MEL-5 melanoma): 0.0309 µM
- TGI (SNB-19 CNS): > 40.9 µM
- TGI (UACC-62 melanoma): 0.0312 µM
- TGI (MDA-MB-231 breast): 0.834 µM
- TGI (UACC-257 melanoma): 0.0669 µM
- TGI (UO-31 renal): > 100 µM
- TGI (HOP-92 NSCLC): 0.0829 µM
- TGI (SF-295 CNS): > 100 µM
- TGI (NCI-H460 lung): > 100 µM
- TGI (CCRF-CEM leukemia): > 100 µM
- TGI (HCT-15 colon): > 100 µM
- TGI (A498 renal): 0.0685 µM
- TGI (NCI-H522 lung): 0.328 µM
- TGI (SK-OV-3 ovarian): > 100 µM

SMILES: Clc1ccccc1/C=C\C1(c2ccccc2)OCCO1
- TGI (ACHN renal): 31.4 µM
- TGI (IGROV1 ovarian): 29.9 µM
- TGI (CAKI-1 renal): 31.3 µM
- TGI (T-47D breast): 43.4 µM
- TGI (SW-620 colon): 43.3 µM
- TGI (TK-10 renal): 48.4 µM
- TGI (SF-539 CNS): 53.3 µM
- TGI (SF-268 CNS): 29.2 µM
- TGI (KM12 colon): 23.7 µM
- TGI (HL-60(TB) leukemia): 73.9 µM
- TGI (NCI-H23 lung): 22.1 µM
- TGI (LOX IMVI melanoma): 23.7 µM
- TGI (HOP-62 NSCLC): 39.8 µM
- TGI (NCI-H226 lung): 44.3 µM
- TGI (OVCAR-3 ovarian): 31.6 µM
- TGI (HS 578T breast): 35.1 µM
- TGI (MCF7 breast): 7.53 µM
- TGI (MDA-N): 30.2 µM
- TGI (SNB-75 CNS): 34.3 µM
- TGI (MOLT-4 leukemia): 73.4 µM
- TGI (SK-MEL-28 melanoma): 38 µM
- TGI (MDA-MB-435): 29.6 µM
- TGI (RXF 393 renal): 34.5 µM
- TGI (SN12C renal): 32.7 µM
- TGI (DU-145 prostate): 30.3 µM
- TGI (RPMI-8226 leukemia): 23.1 µM
- TGI (OVCAR-4 ovarian): 33 µM
- TGI (A549 NSCLC): > 100 µM
- TGI (NCI/ADR-RES ovarian): 31.5 µM
- TGI (OVCAR-5 ovarian): 44.4 µM
- TGI (OVCAR-8 ovarian): 34.3 µM
- TGI (COLO 205 colon): 40.2 µM
- TGI (HCT-116 colon): 25.2 µM
- TGI (U251 CNS): 24.8 µM
- TGI (M14 melanoma): > 100 µM
- TGI (SR leukemia): 28.9 µM
- TGI (HT29 colon): 33.2 µM
- TGI (K-562 leukemia): > 100 µM
- TGI (SK-MEL-5 melanoma): 38.6 µM
- TGI (HCC-2998 colon): 31.9 µM
- TGI (UACC-62 melanoma): 29.5 µM
- TGI (MDA-MB-231 breast): 26.2 µM
- TGI (EKVX NSCLC): 36 µM
- TGI (UACC-257 melanoma): 31.7 µM
- TGI (UO-31 renal): > 100 µM
- TGI (HOP-92 NSCLC): > 100 µM
- TGI (SF-295 CNS): 31.2 µM
- TGI (NCI-H460 lung): 32.7 µM
- TGI (CCRF-CEM leukemia): 53.8 µM
- TGI (786-0 renal): 31.1 µM
- TGI (HCT-15 colon): 26.3 µM
- TGI (A498 renal): 35.8 µM
- TGI (NCI-H522 lung): 29.3 µM
- TGI (SK-OV-3 ovarian): 91.3 µM
